Molecules are shown by their SMILES.

Broadly, the melting point is the temperature, or range, at which the solid turns liquid. `Cc1noc(C)c1-c1cccc(C[S+]([O-])CC(N)=O)c1` (stereo not drawn): the melting point was 34 to 43 °C. `Cc1ccc(C[S+]([O-])CC(N)=O)cc1-c1ccccc1` (stereo not drawn) came in with a melting point of 153 °C.

In turn, `CC(=O)c1ccc(-c2ccccc2C[S+]([O-])CC(N)=O)cc1` (stereo not drawn) had a melting point of 155 to 160 °C.

Values taken from patent publication US7981907B2 (dated 2011).
